Assay results: patent publication US11274111B2, “Arginase inhibitors and methods of use” (Merck Sharp & Dohme Corp., priority 2018, dated 2022)

Tests used:
[1] = test system: experimental autoimmune encephalomyelitis; details: cited from earlier work
[2] = test system: opossum internal anal sphincter muscle; details: cited from earlier work
live male rabbits = details: cited from earlier work
[3] = test system: corpus cavernosum of the diabetic person; details: ex vivo; cited from earlier work
guinea pigs = details: nebulizer treatment, allergic asthma model; cited from earlier work
[4] = test system: rabbit and human penile corpus cavernosum; details: cited from earlier work
live female rabbits = details: cited from earlier work
Arginase = target: T1, Arginase (Homo sapiens, UniProt P05089); experiment: Arginase Thioornithine Generating Assay (TOGA); type: biochemical
T1 construct: Arginase protein was recombinantly expressed in Escherichia coli
T1 sequence (P05089 1-322): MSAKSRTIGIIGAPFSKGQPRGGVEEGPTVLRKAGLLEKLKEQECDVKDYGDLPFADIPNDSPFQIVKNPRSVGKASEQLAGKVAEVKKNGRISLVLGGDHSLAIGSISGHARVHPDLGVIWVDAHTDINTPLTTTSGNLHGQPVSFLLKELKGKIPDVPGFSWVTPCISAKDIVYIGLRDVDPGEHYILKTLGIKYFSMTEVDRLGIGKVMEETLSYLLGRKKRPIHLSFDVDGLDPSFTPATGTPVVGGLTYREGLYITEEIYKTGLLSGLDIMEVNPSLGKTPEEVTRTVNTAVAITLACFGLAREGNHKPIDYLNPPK
Method: Arginase Thioornithine Generating Assay (TOGA)
Compounds were serially diluted in ten 3-fold steps in DMSO starting from 10 mM DMSO stocks. Compound dilutions or DMSO alone were then dispensed from the dilution plate into a Greiner black 384-well assay plate (catalog #781086) using an Echo 555 acoustic liquid handler (Labcyte).
Arginase protein was recombinantly expressed in Escherichia coli. Purified protein was then diluted in assay buffer (50 mM Tris pH 7.5, 50 mM NaCl, 1 mM manganese chloride, 0.05% bovine serum albumin to obtain a final Arginase concentration of 1.88 nM. Arginase solution (20 μL) or buffer alone (20 μL) were dispensed to wells of the assay plate using a BioRAPTR liquid dispenser (Beckman Coulter). Assay plates containing compound and arginase enzyme were incubated at room temperature for 30 minutes. Afterwards, 5 μL of 2.5 mM thioarginine (Cayman Chemicals) in assay buffer were added to each well of the assay plate using a BioRAPTR liquid dispenser. Plates were incubated at room temperature for 60 minutes and reactions were quenched by addition of 15 μL of 200 uM 7-Diethylamine-3-(4-maleimidophenyl)-4-methylcoumarin (Sigma Chemical) in 70% ethanol. Plates were briefly shaken to mix and the fluorescence was measured in an Spectramax plate reader (Molecular Devices) with a 410 nm excitation wavelength and an 490 nm emission wavelength.
Potencies were calculated by […] to the four parameter logistic IC50 equation.

[5] = Top Dose 10000 nM, read-out: Percent Inhibition at Top Dose

For `N[C@@H](CCCCB(O)O)C(=O)O` [ABH, (S)-2-amino-6-boronohexanoic acid], the disease score [1] is given as “improves the disease score of animals”, the “relaxation of internal anal sphincter muscle” value [2] is given as “relax this muscle” and the erectile response (live male rabbits) is given as “enhances the erectile response”. For the same compound, the nitric oxide biosynthesis [3] was “restores nitric oxide biosynthesis”, the airway hyperresponsiveness (guinea pigs) was “prevents airway hyperresponsiveness” and the “nitric oxide-dependent relaxation of corpus cavernosum” value [4] was “enhances the nitric oxide-dependent relaxation of this tissue”. For the same compound, the “engorgement response in the genitalia” value (live female rabbits) was “enhances the engorgement response”.
In the case of “(1S,2S,3aR,4S,5S,6aS)-2-amino-1-(3-boronopropyl)-4-fluoro-5-(methylamino)octahydropentalene-2-carboxylate [Example 55b]”, the “Percent Inhibition at Top Dose” value (Arginase; Top Dose 10000 nM) is reported as 101.7% and the IC50 (Arginase; recombinant arginase 1.88 nM, thioarginine substrate) is reported as 14.3 nM.
In the case of `NC1(C(=O)O)C[C@H]2CNC[C@H]2C1CCCB(O)O` (relative stereo) [Example 1, (3aR,6aR-rel-)-5-amino-4-(3-boronopropyl)octahydrocyclopenta[c]pyrrole-5-carboxylic acid], the inhibition at 100 µM (Arginase; Top Dose 100000 nM, read-out: Percent Inhibition at Top Dose) is reported as 99.4%.
`CC(C)N1C[C@@H]2C[C@@](N)(C(=O)O)[C@@H](CCCB(O)O)[C@@H]2C1` [Example 8, (3aR,4S,5S,6aR)-5-amino-4-(3-boronopropyl)-2-isopropyloctahydrocyclopenta[c]pyrrole-5-carboxylic acid] showed an inhibition at 10 µM (Arginase; [5]) of 74.8%.
With `CC(=O)N1C[C@@H]2CC(N)(C(=O)O)C(CCCB(O)O)[C@@H]2C1` (mixture of isomers) [Example 13a, rac-(3aR,6aR)-2-acetyl-5-amino-4-(3-boronopropyl)octahydrocyclopenta[c]pyrrole-5-carboxylic acid] the inhibition at 10 µM (Arginase; [5]) was 99%.
In the case of `N[C@@]1(C(=O)O)C[C@H]2C[C@@H](NCC(F)(F)F)C[C@H]2[C@@H]1CCCB(O)O` [Example 49, (1S,2S,3aR,5R,6aR)-2-amino-1-(3-boronopropyl)-5-((2,2,2-trifluoroethyl)amino)octahydropentalene-2-carboxylic acid], the inhibition at 10 µM (Arginase; [5]) is reported as 85.9%.
For `NC1(C(=O)O)CC2CN(S(N)(=O)=O)CC2C1CCCB(O)O` (single isomer, unassigned) [Example 18a, 5-amino-4-(3-boronopropyl)-2-sulfamoyloctahydrocyclopenta[c]pyrrole-5-carboxylic acid], the inhibition at 10 µM (Arginase; [5]) was 100%.
`NC1(C(=O)O)C(CCCB(O)O)C[C@H]2C[C@H]21` (relative stereo) [Example 36a, rel-(1R,5R)-2-amino-3-(3-boronopropyl)bicyclo[3.1.0]hexane-2-carboxylic acid] gave an inhibition at 10 µM (Arginase; [5]) of 93%.
